Reference: ChEMBL document CHEMBL3868638, “Potential Treatment of Cognitive Impairment in Schizophrenia by Phosphodiesterase 2 (PDE2) Inhibitors” (ACS Med Chem Lett, 2017)
Active and inactive are the calls of the source. The rule behind the calls is not given here.

organism: Homo sapiens; test: (§1) Inhibition of human PDE2 using FAM-labeled cAMP as substrate after 60 mins in presence of cGMP by florescence polarization assay

Row | SMILES | inhibition
1 | COc1ccc(Cc2nc(O)c3c(C)nc([C@@H](CCCc4ccccc4)[C@@H](C)O)n3n2)cc1OC | Active

target: not listed separately; test: as §1

Row | SMILES | Ki [nM]
2 | CN(C)c1nc(C(=O)N[C@@H](c2ccc(OC(F)(F)F)c(F)c2)C(C)(C)O)cc(=O)[nH]1 | 0.12
3 | CC[C@@H](NC(=O)c1cc(=O)[nH]c(N(C)C)n1)c1ccc(SC(F)(F)F)cc1 | 0.69 to 5.05
4 | C[C@@H](NC(=O)c1cc(=O)[nH]c(N(C)C)n1)c1ccc(OC(F)(F)F)c(Cl)c1 | 1.6
5 | C[C@@H](NC(=O)c1cc(=O)[nH]c(N(C)C)n1)c1ccc(SC(F)(F)F)cc1 | 0.32 to 0.82
6 | CN(C)c1nc(C(=O)NC2(c3ccc(C(F)(F)F)c(F)c3)CC2)cc(=O)[nH]1 | 0.9 to 0.96
7 | CC(C)[C@@H](NC(=O)c1cc(=O)[nH]c(N(C)C)n1)c1ccc(SC(F)(F)F)cc1 | 0.37 to 5.1
